The source of these data is patent publication US9132131B2, “Use of adenosine A3 receptor agonists for treatment of neuropathic pain” (Saint Louis University, priority 2011, dated 2015).

One may read the ED50 as the dose that gives a 50% effect, or the effect in half of the subjects.

Data set [1] relates to CCI of the sciatic nerve (mechano-allodynia). The data set can be described thus: CCI model of neuropathic pain, mechano-allodynia (von Frey PWT). Format: in vivo, mice. As to conditions: for efficacy of IB-MECA compared with this drug: D7, time of peak reversal (FIG. 7); for effect on PWT in contralateral paws / ED50 at peak reversal of mechano-allodynia when combined with IB-MECA: D7 after CCI; for effect on PWT in contralateral paws: drug alone; for ED50: Mus musculus, read-out: ED50, reversal of mechano-allodynia; for time of maximal reversal of mechano-allodynia: after single administration on D7; for increase of potency by IB-MECA: co-administered IB-MECA 0.2 μmol/kg; for increase of potency by IB-MECA / effect of antagonist given alone on ipsilateral or contralateral PWT: D7; for ED50 at peak reversal of mechano-allodynia when combined with IB-MECA: mice, co-administered with IB-MECA 0.2 μmol/kg; for fold less potent than IB-MECA in reversing mechano-allodynia: ratio of ED50 values, D7, time of peak reversal; for reversal of mechano-allodynia in ipsilateral paws: single dose D7, IB-MECA 0.2-2, CI-IB-MECA 0.6, MRS1898 0.5 μmol/kg i.p., morphine 0.11-35 s.c., gabapentin 18-584 i.p., amitriptyline 3-191 μmol/kg oral; for effect of antagonist pretreatment on anti-allodynic effect of CI-IB-MECA or MRS1898: 15 min before CI-IB-MECA 0.6 or MRS1898 0.5 μmol/kg, DPCPX and SCH-442416 with MRS1898 only; for effect of antagonist pretreatment on anti-allodynic effect of IB-MECA: 15 min before IB-MECA 0.5 μmol/kg, MRS1523 5, DPCPX 2, SCH-442416 0.2 μmol/kg; for effect of antagonist given alone on ipsilateral or contralateral PWT: MRS1523 5, DPCPX 2, SCH-442416 0.2, naloxone 25 μmol/kg. The protocol:
CCI model of neuropathic pain. CCI to the sciatic nerve of the left hind leg in mice was performed under general anaesthesia using the well-characterized Bennett model. Briefly, mice (weighing 25-30 g at the time of surgery) were anesthetized with 3% isoflurane/100% O2 inhalation and maintained on 2% isoflurane/100% O2 for the duration of surgery. The left thigh was shaved, scrubbed with Nolvasan® and a small incision (1-1.5 cm in length) was made in the middle of the lateral aspect of the left thigh to expose the sciatic nerve. The nerve was loosely ligated around the entire diameter of the nerve at three distinct sites (spaced 1 mm apart) using silk sutures (6.0). The surgical site was closed with a single muscle suture and a skin clip. Pilot studies established that under our experimental conditions peak mechano-allodynia develops by day 5-day 7 (D5-D7) following CCI. Test substances or their vehicles were given subcutaneously (s.c.), intraperitoneally (i.p.) or orally by gavage (0.1 ml) at peak mechano-allodynia (D7).
Behavioral testing. […] The plantar aspect of hindpaws were probed three times with calibrated von Frey filaments (Stoelting, mice: 0.07-2.00 grams; rats: 0.407-26 grams) according to the “up-and-down” method. […] Briefly, each rat was placed in a Plexiglas chamber (28×40×35-cm, wire mesh floor) and after its acclimation, a servo-controlled mechanical stimulus was applied to the plantar surface that exerted a progressively increasing punctate pressure up to 50 grams within 10 seconds. Mechanical threshold was assessed three times at each time point to yield a mean value, reported as PWT (grams). […] Mechano-hyperalgesia was assessed in rats by the Randall and Sellitto paw pressure test using an analgesiometer (Ugo Basile). The nociceptive threshold was defined as the force (grams) at which the rat withdrew its paw (cut off set at 250 grams).
Determining ED50 values. Dose response data were curve-fitted using the least sum of square method by a normalized 4-parameter, variable slope non-linear analysis of the % Reversal of Mechano-allodynia in CCI and % Prevention of Mechano-allodynia or Mechano-hyperalgesia in CIPN using GraphPad Prism (Release 5.03, GraphPad Software, Inc.) from which the ED50 was determined and reported with the 95% confidence interval (95% CI). In the CCI model, the % Reversal of Mechano-allodynia=(PWT1h−PWTD7)/(PWTD0−PWTD7)×100, where PWTD0=Paw Withdrawal Threshold (g) at D0, PWT1h=Paw Withdrawal Threshold (g) at 1 hour after the administration of IB-MECA, gabapentin, amitriptyline, or combinations of IB-MECA with gabapentin or amitriptyline, and PWTD7=Paw Withdrawal Threshold (grams) at D7 prior to drug administration.
Statistical Analysis. Data are expressed as mean±SD for n animals. Behavioral data were analyzed by two-way repeated measures ANOVA with Bonferroni comparisons (full time course studies) or one-way ANOVA Dunnett's comparisons (1 hour behavioral data). The dose response curves were compared to a globally fitted curve using the extra sum-of-squares F-test comparisons to determine whether the data represented distinct curves between treatments. Significant differences were defined at a P<0.05. All statistical analysis was performed using GraphPad Prism (v5.03, GraphPad Software, Inc.).

The subject of data set [2] is A3ARs. Particulars: cited from earlier work.
The subject of data set [3] is paclitaxel-induced neuropathic pain. Kind of data set: Paclitaxel-induced neuropathic pain (mechano-allodynia, mechano-hyperalgesia). The format is in vivo, rats.
The subject of data set [4] is SKBR3 breast cancer cells. The data set can be described thus: MTT cell survival assay, SKBR3. The format is cell-based, human. Particulars: 48 hours, MTT, SKBR3. The protocol:
Cells were cultured and assayed in DMEM (SKBR3; human breast cancer cells), L15 (SW480; human colon cancer cells) or RPMI […] (RPMI 8226; human multiple myeloma cells) supplemented with heat-denatured 10% FBS and penicillin/streptomycin at 37° C., 0% (SW480) or 5% CO2 (SKBR3 and RPMI 8226), 95% humidity. The antitumor activities of these agents were measured in cells (6.25×10^4 cells/well) cultured overnight in 24-well plates (SKBR3 and SW480; BD Biosciences) or 12 mm×7.5 mm culture tubes (RPMI 8226; BD Biosciences) in complete media. […] Two naïve control wells were included as a control for 100% survival. Cell survival was determined using a MTT (3-(4,5-dimethylthiazol-2-yl)-2,5-diphenyltetrazolium bromide) assay adapted from a previously described assay. Cells were incubated with MTT (500 μg/ml) for 75 minutes at 37° C., 0% or 5% CO2, 95% humidity, removing the media and dissolving the tetrazolium crystals in isopropanol. […] The antitumor effects of IB-MECA alone were determined as % Survivability=(A560-570 nm of chemotherapeutic vehicle+IB-MECA)/(mean A560-570 nm of the naïve control wells)×100. The LD50 of each chemotherapeutic agent+IB-MECA or its vehicle was calculated using three-parameter non-linear analysis using % Survivability=(A560-570 nm of chemotherapeutic+IB-MECA or its vehicle)/(mean A560-570 nm chemotherapeutic vehicle+vehicle of IB-MECA)×100. The top and bottom plateaus were constrained using GraphPad Prism v5.03 (GraphPad Software, Inc.).
(In general: Formazan colour is commonly taken as a measure of viable cells.)

For data set [5] the following is noted: cited from earlier work.

Where “and” joins values, the source holds several entries; their conditions need not be identical. Identical values can stand only once. Like-named read-outs stand apart in the source and are kept apart here.

As for `CN(C)CCC=C1c2ccccc2CCc2ccccc21` [amitriptyline], in data set [1], the “efficacy of IB-MECA compared with this drug” value is reported as “equiefficacious”, the “effect on PWT in contralateral paws” value is reported as “had no effect”, the ED50 is 31 µmol/kg and the “time of maximal reversal of mechano-allodynia” value is given as 1 h. In data set [1], the “increase of potency by IB-MECA” value amounted to 2 fold; the “ED50 at peak reversal of mechano-allodynia when combined with IB-MECA” value stood at 13 µmol/kg; the “fold less potent than IB-MECA in reversing mechano-allodynia” value is > 75 fold and 75 fold; the “reversal of mechano-allodynia in ipsilateral paws” value (“reversal … in ipsilateral paws” for short) is recorded as “dose-dependent reversal of mechano-allodynia”.
In the case of `CCCOC(=O)c1c(-c2ccccc2)nc(CC)c(C(=O)SCC)c1CCC` [MRS1523, 3-propyl-6-ethyl-5[(ethylthio)carbonyl]-2-phenyl-4-propyl-3-pyridine-carboxylate], in data set [2], the “selectivity against A1AR” value is given as “moderate selectivity”; the “selectivity against A2AAR and A2BAR” value is on record as “at least 1000 fold”. The “binding to A3ARs” value in data set [2] (murine and rat) is reported as “high affinity”. Further, in data set [1], the “effect of antagonist pretreatment on anti-allodynic effect of CI-IB-MECA or MRS1898” value (“effect … of CI-IB-MECA or MRS1898” for short) is reported as “blocked”, the “effect of antagonist pretreatment on anti-allodynic effect of IB-MECA” value (from here on “effect of antagonist pretreatment … of IB-MECA”) is given as “prevented” and the “effect of antagonist given alone on ipsilateral or contralateral PWT” value (“effect of antagonist given alone” for short) was “lacked effect”. Also, the “effect on PWT when administered alone (vehicle groups)” value in data set [3] (IB-MECA 0.2 μmol/kg/d in any of the chemotherapy models, MRS1523 5 μmol/kg/d) is “lacked effect”. The “effect of co-administered antagonist on the effects of IB-MECA” value in data set [3] (MRS1523 5 μmol/kg/d with IB-MECA 0.2 μmol/kg/d) is given as “prevented”.
As to `CC(=O)O[C@H]1C(=O)[C@@]2(C)[C@H]([C@H](OC(=O)c3ccccc3)[C@]3(O)C[C@H](OC(=O)[C@H](O)[C@@H](NC(=O)c4ccccc4)c4ccccc4)C(C)=C1C3(C)C)[C@]1(OC(C)=O)CO[C@@H]1C[C@@H]2O` [Paclitaxel], the LD50 in data set [4] is 7.0 nM.
Regarding `C=CCN1CC[C@]23c4c5ccc(O)c4O[C@H]2C(=O)CC[C@@]3(O)[C@H]1C5` [naloxone], in data set [1], the “effect of antagonist given alone” value is on record as “did not affect”. The “effect of naloxone on reversal of mechano-allodynia by A3AR agonists” value in data set [1] (naloxone 25 μmol/kg i.p. 15 minutes before IB-MECA or MRS1898 0.5 μmol/kg) is listed as “did not interfere”.
As to `N.N.O=C([O-])C1(C(=O)[O-])CCC1.[Pt+2]` [carboplatin], the “incidence of CIPN” value in data set [5] (subjects receiving the drug) is recorded as 40%.
For `NCC1(CC(=O)O)CCCCC1` [gabapentin, 2-[1-(aminomethyl)cyclohexyl]acetic acid], in data set [1], the “efficacy of IB-MECA compared with this drug” value was “equiefficacious”, the “effect on PWT in contralateral paws” value is “had no effect”, the 50% effective dose (ED50) stood at 140 µmol/kg and the “time of maximal reversal of mechano-allodynia” value was determined as 1 h. In data set [1], the “increase of potency by IB-MECA” value is given as above 5 fold, the “ED50 at peak reversal of mechano-allodynia when combined with IB-MECA” value was determined as 27 µmol/kg, the “fold less potent than IB-MECA in reversing mechano-allodynia” value is on record as above 350 fold and the “reversal … in ipsilateral paws” value was “dose-dependent reversal of mechano-allodynia”.
As to `COc1ccc(CCCn2ncc3c2nc(N)n2nc(-c4ccco4)nc32)cc1` [SCH-442416, 2-(2-furanyl)-7-[3-(4-methoxyphenyl)propyl]-7Hpyrazolo[4,3-e][1,2,4]triazolo[1,5-C]pyrimidin-5-amine], in data set [1], the “effect … of CI-IB-MECA or MRS1898” value is “did not prevent”, the “effect of antagonist pretreatment … of IB-MECA” value is on record as “not affected” and the “effect of antagonist given alone” value is “lacked effect”.
On to `CNC(=O)[C@H]1O[C@@H](n2cnc3c(NCc4cccc(I)c4)nc(Cl)nc32)[C@H](O)[C@@H]1O` [CI-IB-MECA, 2-chloro-N^6-(3-iodobenzyl)-adenosine-5′-N-methyluronamide], for which, in data set [1], the “effect on PWT in contralateral paws” value is reported as “had no effect” and the “reversal … in ipsilateral paws” value is on record as “reversed mechano-allodynia”. In addition, the “effect on paclitaxel-induced neuropathic pain” value in data set [3] (0.2 μmol/kg/d (not shown)) is on record as “completely blocked”.
Regarding `CCCn1c(=O)c2[nH]c(C3CCCC3)nc2n(CCC)c1=O` [DPCPX, 8-cyclopentyl-1,3-dipropylxanthine], in data set [1], the “effect … of CI-IB-MECA or MRS1898” value was “did not prevent”, the “effect of antagonist pretreatment … of IB-MECA” value is listed as “not affected” and the “effect of antagonist given alone” value is reported as “lacked effect”.
Turning to `N.N.[Cl][Pt][Cl]` [cisplatin], the “incidence of CIPN” value in data set [5] (in vivo) is given as 70-90%.
As for `CC(=O)O[C@@]12CO[C@@H]1C[C@H](O)[C@@]1(C)C(=O)[C@H](O)C3=C(C)[C@@H](OC(=O)[C@H](O)[C@@H](NC(=O)OC(C)(C)C)c4ccccc4)C[C@@](O)([C@@H](OC(=O)c4ccccc4)[C@H]21)C3(C)C` [docetaxel], the “incidence of CIPN” value in data set [5] (subjects receiving the drug) is 60%.
